This is an account of results in ChEMBL document CHEMBL3046892, “Sensitivity difference to insecticides of a riverine caddisfly, Cheumatopsyche brevilineata (Trichoptera: Hydropsychidae), depending on the larval stages and strains” (J Pestic Sci, 2009).

One may read the EC50 as the concentration giving half of the maximal effect. A lower EC50 goes with a more potent agent.

In brackets after ≈: the same amount, converted by molar mass.

Assay [1] has as its system Cheumatopsyche. The assay can be described thus: Ratio of EC50 for fifth-instar larvae of Cheumatopsyche brevilineata K to EC50 for first instar larvae of Cheumatopsyche brevilineata K. The class given is functional.
Assay [2] concerns Cheumatopsyche. Briefly: Ratio of EC50 for fifth-instar larvae of Cheumatopsyche brevilineata M to EC50 for first instar larvae of Cheumatopsyche brevilineata M. It is filed as functional.
The test system of assay [3] is Cheumatopsyche. The assay can be described thus: Insecticidal activity against first-instar larvae of Cheumatopsyche brevilineata K after 48 hr. It is filed as functional, organism-based.
In assay [4] the test system is Cheumatopsyche. The assay can be described thus: Insecticidal activity against fifth-instar larvae of Cheumatopsyche brevilineata K after 48 hr. The class given is functional, organism-based.
The test system of assay [5] is Cheumatopsyche. The assay can be described thus: Insecticidal activity against first-instar larvae of Cheumatopsyche brevilineata M after 48 hr. It is filed as functional, organism-based.
Assay [6] concerns Cheumatopsyche. Briefly: Insecticidal activity against fifth-instar larvae of Cheumatopsyche brevilineata M after 48 hr. The class given is functional, organism-based.
The subject of assay [7] is Cheumatopsyche. The assay can be described thus: Insecticidal activity against first to fifth instar larvae of Cheumatopsyche brevilineata K after 48 hr. It is filed as functional, organism-based.

For `CCC(C)c1ccccc1OC(=O)NC` (stereo not given) [FENOBUCARB], the “Ratio EC50” value in assay [1] stood at 36.9; in assay [2] it was 10.3. Moreover, the half-maximal effective concentration (EC50) in assay [3] is 0.00789 µg/mL (≈ 0.0381 µM); in assay [4], 0.291 µg/mL (≈ 1.4 µM); in assay [5], 0.00948 µg/mL (≈ 0.0457 µM); in assay [6] it was 0.0919 µg/mL (≈ 0.443 µM).

In the case of `COP(=S)(OC)Oc1ccc([N+](=O)[O-])c(C)c1` [FENITROTHION], the “Ratio EC50” value in assay [1] was 28.4; in assay [2], 4.3. The EC50 in assay [3] is 0.0261 µg/mL (≈ 0.0941 µM); in assay [4], 0.741 µg/mL (≈ 2.67 µM); in assay [5], 0.00623 µg/mL (≈ 0.0225 µM); in assay [6] it was 0.0265 µg/mL (≈ 0.0956 µM).

For the compound `O=[N+]([O-])/N=C1\NCCN1Cc1ccc(Cl)nc1` [IMIDACLOPRID], the EC50 was determined as 0.00654 µg/mL (≈ 0.0256 µM) in assay [7], 0.00664 µg/mL (≈ 0.026 µM) in assay [5] and 0.0379 µg/mL (≈ 0.148 µM) in assay [6].
